According to PubChem BioAssay AID1845205 (Molecular Pharmacology Branch, DTP, NCI, 2023):

Test system: MPNST multicellular tumor spheroids, viability % test/control
Assay: Anticancer human tumor MPNST cell line growth inhibition;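 note: spheroids exposed to agents for seven days after three days of growth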;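 for viability, T/C: luminescence signal used as surrogate for viable cell amount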
Details: for IC50: curve of first compound; for viability, T/C: stronger effect = lower value; active = viability on the fitted dose curve at most 10% of control; inactive = the rest
How it was run: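 Complex spheroids of malignant cells with endothelial cells and mesenchymal stem cells; agents alone or combined, from near clinical Cmax (or 10 microM if unknown) down in half-log steps, 0.25% DMSO final.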

[1] = second compound 30 pM, first compound 0.0316 µM
[2] = second compound 30 pM, first compound 0.1 µM
[3] = second compound 30 pM, first compound 0.316 µM
[4] = second compound 30 pM, first compound 1 µM
[5] = second compound 30 pM, first compound 3.16 µM
[6] = second compound 30 pM, first compound 10 µM
[7] = second compound 94.9 pM, first compound 0.0316 µM
[8] = second compound 94.9 pM, first compound 0.1 µM
[9] = second compound 94.9 pM, first compound 0.316 µM
[10] = second compound 94.9 pM, first compound 1 µM
[11] = second compound 94.9 pM, first compound 3.16 µM
[12] = second compound 94.9 pM, first compound 10 µM
[13] = second compound 0.0003 µM, first compound 0.0316 µM
[14] = second compound 0.0003 µM, first compound 0.1 µM
[15] = second compound 0.0003 µM, first compound 0.316 µM
[16] = second compound 0.0003 µM, first compound 1 µM
[17] = second compound 0.0003 µM, first compound 3.16 µM
[18] = second compound 0.0003 µM, first compound 10 µM
[19] = second compound 0.000949 µM, first compound 0.0316 µM
[20] = second compound 0.000949 µM, first compound 0.1 µM
[21] = second compound 0.000949 µM, first compound 0.316 µM
[22] = second compound 0.000949 µM, first compound 1 µM
[23] = second compound 0.000949 µM, first compound 3.16 µM
[24] = second compound 0.000949 µM, first compound 10 µM
[25] = second compound 0.003 µM, first compound 0.0316 µM
[26] = second compound 0.003 µM, first compound 0.1 µM
[27] = second compound 0.003 µM, first compound 0.316 µM
[28] = second compound 0.003 µM, first compound 1 µM
[29] = second compound 0.003 µM, first compound 3.16 µM
[30] = second compound 0.003 µM, first compound 10 µM

Cc1cc(C)c(CNC(=O)c2cc(-c3ccc(CN4CCOCC4)cc3)cc3c2cnn3C2CCCC2)c(=O)[nH]1 + COc1cc2c(cc1O)CCNC21CSC2c3c(OC(C)=O)c(C)c4c(c3C(COC1=O)N1C(O)C3Cc5cc(C)c(OC)c(O)c5C(C21)N3C)OCO4
> 10000 nM: IC50 (second compound 30 pM) | IC50 (second compound 94.9 pM) | IC50 (second compound 0.0003 µM)
< 31.6 nM: IC50 (second compound 0.000949 µM) | IC50 (second compound 0.003 µM)
inactive: viability, T/C [1] 106% | viability, T/C [2] 93.7% | viability, T/C [3] 85.2% | viability, T/C [4] 101% | viability, T/C [5] 113% | viability, T/C [6] 99.3% | viability, T/C [7] 104% | viability, T/C [8] 89.8% | viability, T/C [9] 71% | viability, T/C [10] 102% | viability, T/C [11] 120% | viability, T/C [12] 68.9% | viability, T/C [13] 86% | viability, T/C [14] 80.3% | viability, T/C [15] 83.3% | viability, T/C [16] 98% | viability, T/C [17] 91.4% | viability, T/C [18] 70.7% | viability, T/C [19] 41.3% | viability, T/C [20] 53.5% | viability, T/C [21] 46% | viability, T/C [22] 43.6% | viability, T/C [23] 44.3% | viability, T/C [24] 41.6% | viability, T/C [25] 13.1% | viability, T/C [26] 12.2% | viability, T/C [27] 12.1% | viability, T/C [28] 13.5% | viability, T/C [29] 12.6% | viability, T/C [30] 9.87%

Cc1sc2c(c1C)C(c1ccc(Cl)cc1)=NC(CC(=O)Nc1ccc(O)cc1)c1nnc(C)n1-2 (stereo not given) + COc1cc2c(cc1O)CCNC21CSC2c3c(OC(C)=O)c(C)c4c(c3C(COC1=O)N1C(O)C3Cc5cc(C)c(OC)c(O)c5C(C21)N3C)OCO4
inactive: viability, T/C (second compound 30 pM, first compound 0.00949 µM) 86.9% | viability, T/C (second compound 30 pM, first compound 0.03 µM) 71% | viability, T/C (second compound 30 pM, first compound 0.0949 µM) 85.7% | viability, T/C (second compound 30 pM, first compound 0.3 µM) 38.2% | viability, T/C (second compound 30 pM, first compound 0.949 µM) 26.3% | viability, T/C (second compound 30 pM, first compound 3 µM) 24% | viability, T/C (second compound 94.9 pM, first compound 0.00949 µM) 62.5% | viability, T/C (second compound 94.9 pM, first compound 0.03 µM) 70.3% | viability, T/C (second compound 94.9 pM, first compound 0.0949 µM) 56.6% | viability, T/C (second compound 94.9 pM, first compound 0.3 µM) 39.3% | viability, T/C (second compound 94.9 pM, first compound 0.949 µM) 27.9% | viability, T/C (second compound 94.9 pM, first compound 3 µM) 23.9% | viability, T/C (second compound 0.0003 µM, first compound 0.00949 µM) 59.6% | viability, T/C (second compound 0.0003 µM, first compound 0.03 µM) 53.3% | viability, T/C (second compound 0.0003 µM, first compound 0.0949 µM) 47.5% | viability, T/C (second compound 0.0003 µM, first compound 0.3 µM) 36.3% | viability, T/C (second compound 0.0003 µM, first compound 0.949 µM) 26.6% | viability, T/C (second compound 0.0003 µM, first compound 3 µM) 22.4% | viability, T/C (second compound 0.000949 µM, first compound 0.00949 µM) 31% | viability, T/C (second compound 0.000949 µM, first compound 0.03 µM) 29.7% | viability, T/C (second compound 0.000949 µM, first compound 0.0949 µM) 27.4% | viability, T/C (second compound 0.000949 µM, first compound 0.3 µM) 21.6% | viability, T/C (second compound 0.000949 µM, first compound 0.949 µM) 12.7% | viability, T/C (second compound 0.000949 µM, first compound 3 µM) 14.8%
< 9.49 nM: IC50 (second compound 0.000949 µM) | IC50 (second compound 0.003 µM)
219 nM: IC50 (second compound 30 pM)
active: viability, T/C (second compound 0.003 µM, first compound 0.00949 µM) 6.19% | viability, T/C (second compound 0.003 µM, first compound 0.03 µM) 4.21% | viability, T/C (second compound 0.003 µM, first compound 0.0949 µM) 4.96% | viability, T/C (second compound 0.003 µM, first compound 0.3 µM) 1.41% | viability, T/C (second compound 0.003 µM, first compound 0.949 µM) 2.26% | viability, T/C (second compound 0.003 µM, first compound 3 µM) 1.94%
155 nM: IC50 (second compound 94.9 pM)
58.4 nM: IC50 (second compound 0.0003 µM)

[2H]c1nc(C)nc([2H])c1-c1cc(NC[C@@H](C)c2cccc3c(C(=O)NC)ccnc23)ncn1 + COc1cc2c(cc1O)CCNC21CSC2c3c(OC(C)=O)c(C)c4c(c3C(COC1=O)N1C(O)C3Cc5cc(C)c(OC)c(O)c5C(C21)N3C)OCO4
> 10000 nM: IC50 (second compound 30 pM) | IC50 (second compound 94.9 pM) | IC50 (second compound 0.0003 µM)
inactive: viability, T/C [1] 83.5% | viability, T/C [2] 71.4% | viability, T/C [3] 73.3% | viability, T/C [4] 97.6% | viability, T/C [5] 72.7% | viability, T/C [6] 88.1% | viability, T/C [7] 94.4% | viability, T/C [8] 83% | viability, T/C [9] 81.6% | viability, T/C [10] 103% | viability, T/C [11] 99.9% | viability, T/C [12] 78.3% | viability, T/C [13] 78% | viability, T/C [14] 75.8% | viability, T/C [15] 72.5% | viability, T/C [16] 95.7% | viability, T/C [17] 75.8% | viability, T/C [18] 87% | viability, T/C [19] 48.4% | viability, T/C [20] 40.6% | viability, T/C [21] 42.7% | viability, T/C [22] 43.1% | viability, T/C [23] 42.3% | viability, T/C [24] 42.9% | viability, T/C [25] 9.53% | viability, T/C [26] 12.7% | viability, T/C [27] 8.26% | viability, T/C [28] 12.5% | viability, T/C [29] 9.06% | viability, T/C [30] 8.35%
< 31.6 nM: IC50 (second compound 0.000949 µM) | IC50 (second compound 0.003 µM)
